The values below are quoted from earlier work in patent US20080248140A1, “COMPOSITION FOR SUPPORTING RESTFUL SLEEP” (priority 2007, published 2008).

Structures are written as SMILES.

For data set [1] the following is noted: normal subjects (Mayer et al. 1996).
Data set [2] relates to GABA(A) receptor. The following applies: activity produced by muscimol; Yuan et al. 2004.

Consider `C/C1=C2/[N-][C@H]([C@H](CC(N)=O)[C@@]2(C)CCC(=O)NC[C@@H](C)OP(=O)([O-])O[C@H]2[C@@H](O)[C@@H](n3cnc4cc(C)c(C)cc43)O[C@@H]2CO)[C@]2(C)N=C(/C(C)=C3N=C(/C=C4N=C1[C@@H](CCC(N)=O)C\4(C)C)[C@@H](CCC(N)=O)[C@]\3(C)CC(N)=O)[C@@H](CCC(N)=O)[C@]2(C)CC(N)=O.[CH3-].[Co+3]` [Methylcobalamin], for which the “quality of sleep and post-sleep restfulness” value in data set [1] was “increases in the quality of sleep and feelings of post-sleep restfulness”.
Consider `CC1=C2[C@H](/C=C(\C)C(=O)O)CC[C@@H](C)[C@H]2CC1` [Valerinic acid], for which, in data set [2], the “neural activity in the brainstem” value is on record as “decrease neural activity in the brainstem”.
